Assay results taken from patent US20260176636A1, “APTAMER-DIRECT INHIBITOR CONJUGATES AND METHODS OF USING THE SAME” (Duke University, priority 2022, published 2026).
Entries after “also recorded” stand apart in the source; their conditions may differ. [invdT] = inverted (3'-3') thymidine

Key:
[1] = tested on: normal human plasma; test: Prothrombin time (PT) plasma coagulation assay; conditions: normal human plasma; comparison with DAB at 500 nM
Procedure: (§1) Plasma coagulation assays: Thrombin time (TT), prothrombin time (PT), and activated partial thromboplastin time (aPTT) assays were performed in citrated normal human plasma on a hemostasis coagulation analyzer (Diagnostica Stago). For TT, 5 μL of inhibitors in the reaction buffer were mixed with 100 μL of plasma and incubated at 37° C. for 5 min. 50 μL of thrombin (6 NIH units/ml) in the reaction buffer was then added to initiate clotting. For PT, 5 μl of inhibitors in the reaction buffer were mixed with 50 μL of plasma and incubated at 37° C. for 5 min. 100 μL of TriniCLOT PT Excel S reagent was then added to initiate clotting. For aPTT, 5 μL of inhibitors in the reaction buffer were mixed with 50 μL of plasma and incubated at 37° C. for 5 min, 50 μL of TriniCLOT aPTT S reagents was then added followed by another 5 min incubation at 37° C. Finally, 50 μL of 20 mM CaCl2) was added to initiate clotting. To characterize antidote reversal of HD22-7A-DAB in the above assays, 5 μL AO2 (finial concentration 2 μM) in the reaction buffer was added after 5-min incubation between plasma and HD22-7A-DAB, followed by another 5 min of incubation before the next step. All assays are performed induplicates.

[2] = tested on: normal human plasma; test: Activated partial thromboplastin time (aPTT) plasma coagulation assay; conditions: normal human plasma; comparison with DAB at 500 nM
Procedure: as §1

[3] = Plasma stability (nuclease degradation, denaturing PAGE); assay type: in vitro ADME; conditions: 500 nM conjugate in human plasma (10 U/mL heparin), 37° C.
Procedure: FIG. 16. End modification of aptamer for higher plasma stability. (a) 3′ modification of HD22-DAB conjugate with invdT or cholesterol modification retain high inhibition potency to thrombin in fluorogenic substrate assay. (b) End modification of HD22-7A-DAB with 3′ invdT or cholesterol prolong […] in plasma. Plasma was prepared from whole blood collected from healthy volunteers that was supplemented with 10 U/mL of heparin to prevent coagulation. 500 nM of aptamer-drug conjugate were incubated with 200 μL of the plasma at 37° C. 20 μL of plasma reaction was collected at different time point (0, 10, 30, 60, 120, 360 min) and immediately vortexed with 100 μL phosphate buffer saline, 100 μL chloroform, and 200 μL methanol to quench nucleases. A mixture of 100 μL water and 100 μL chloroform was further added to extract the nucleic acids. The mixture was vortexed and centrifuged 500 rcf×20 min, and the aqueous phase containing nucleic acids was collected, lyophilized, reconstituted in water, and analyzed on a 15% polyacrylamide gel containing 7M urea.

[4] = target: T1, thrombin (cleavage of fibrinogen) (Homo sapiens, UniProt P00734); test: Fibrinogen turbidity assay; assay type: biochemical; conditions: 50 nM inhibitor, 2.5 nM thrombin, 0.8 mg/mL fibrinogen, absorbance 550 nm
T1 construct: Human alpha thrombin, human factor Xa, and human fibrinogen were purchased from Haematologic Technologies Inc; purchased Haematologic Technologies Inc
Procedure: To test the kinetics of antidote reversal, 1 μL AO2 (final concentration 2 μM) was added to the reaction 10 min after fibrinogen addition. The maximum absorption over the period of assay in the absence and presence of different inhibitors were determined. The time to reach 10%, 50%, and 90% maximum absorption increase from the start point were calculated and recorded as lag time, t50, and t90, respectively, for each inhibitor to evaluate the kinetic of fibrinogen activation. Each experiment was performed in triplicates to determine the mean and standard deviation of each parameter.

[5] = tested on: whole human blood; test: Active clotting time (ACT)
Procedure: Active clotting time (ACT): Citrated blood (72 μL) freshly collected from heathy donors were incubated with 6 μL inhibitors reconstituted in the reaction buffer at room temperature for 3 min following addition of 2.1 μL CaCl2) (245 mM). The blood mixture was then immediately analyzed on an ACT+ cuvette (Accriva Diagnostics) using a Hemochron Jr Signature (Instrumentation Laboratory). The assay was performed with a N value of five. One-way ANOVA test was used to compare between two sets of data.

[6] = target: Human alpha thrombin (Homo sapiens, UniProt P00734); test: Fluorogenic activity assay (fluorescent peptidyl substrate cleavage), thrombin
Procedure: Initial velocity studies of fluorescent peptidyl substrate cleavage by thrombin were used to assess protease inhibition by the EXACT inhibitor (FIG. 1c).
Fluorogenic activity assay: All reagents were freshly reconstituted in the reaction buffer (20 mM HEPES, 150 mM NaCl, and 2 mM CaCl2), 0.02%, Tween 20, pH 7.5) before the assay. 10 μL of thrombin or factor Xa (final concentration 0.5 nM) were first incubated with 5 μL of inhibitor, inhibitor/antidote mixture, or buffer control on a 384-well opaque plate for 5 min at 28° C. 10 μL of fluorogenic substrate (final concentration 50 μM) was then added to the mixture and the time-course fluorescence (λex=352 nm, λem=470 nm) of the sample were recorded every minute for 15 min at 28° C. using a SpectraMax i3 microplate reader (Molecular Devices). The catalytic rate of the protease was quantified by the slope from linear regression of the time-dependent fluorescence intensity and normalized with the sample containing no inhibitor as 100%. Each experiment was performed in triplicates.

[7] = target: thrombin (Homo sapiens, UniProt P00734); test: Bio-layer interferometry; assay type: binding; design: Human alpha thrombin, human factor Xa, and human fibrinogen were purchased from Haematologic Technologies Inc; purchased Haematologic Technologies Inc
Procedure: Bio-layer interferometry: Bio-layer inferometry was performed using Octet R8 BLI System (Sartorius). Briefly, 3.3 nM of biotinylated HD22-7A-DAB, HD22-7A-NH2, HD23-7A-DAB, and HD23-7A-NH2 were immobilized to Octet streptavidin biosensors (Sartorius). […] A 30-min dissociation was performed in buffer containing 200 nM HD22-7A-DAB. The existence of free HD22-7A-DAB in dissociation buffer prevents re-binding of thrombin and provides more accurate koff measurements.

[8] = target: T2, thrombin (FVIII activation) (Homo sapiens, UniProt P00734); test: Thrombin cleavage of FVIII (SDS-PAGE); assay type: biochemical; conditions: 100 nM inhibitor, 1 nM thrombin, 100 nM FVIII
T2 construct: Human alpha thrombin, human factor Xa, and human fibrinogen were purchased from Haematologic Technologies Inc; purchased Haematologic Technologies Inc
Procedure: Thrombin (final concentration 1 nM) was incubated in the absence or presence of thrombin inhibitors (final concentration 100 nM) at 37° C. for 5 min following by addition of recombinant human FVIII (final concentration 100 nM). Sample were collected at 1, 2, 5, 10, 20, 30, 40, and 60 min of reaction and quenched in SDS loading buffer and heating at 95° C. for 5 min. The digestion products at different time points are then characterized on a 4-20% PAGE gel. Thrombin's activity on activating FVIII in the absence and presence of thrombin inhibitors were quantified using the time-course concentration of intact light chain under thrombin digestion determined by band intensity. The assay was performed in duplicates.

[9] = tested on: normal human plasma; test: Thrombin time (TT) plasma coagulation assay
Procedure: as §1

[10] = tested on: human thrombin; conditions: approximately 1 μM; cited from earlier work

Substance: HD22-7A-DAB
- effect on PT, result in words [1]: significantly longer than the same concentration of DAB; also recorded: rivals UFH
- effect on aPTT, result in words [2]: significantly longer than the same concentration of DAB; also recorded: weaker anticoagulant than UFH
- half-life in plasma [3]: around 1 hour
- inhibition of thrombin-mediated fibrin clot formation, result in words [4]: completely inhibited
- ACT compared with 5 U/mL UFH ([5]; 1 μM): comparable to
- ACT compared with 5 U/mL UFH ([5]; 2 μM): significantly higher than
- ACT (measurable range of analyzer) ([5]; 2 μM, whole blood): > 999 s
- ACT ([5]; 1-μM concentration, whole human blood): 624 s
- effect on ACT, result in words ([5]; whole human blood): dose dependently prolonged ACT; also recorded: significantly higher than the ACTs that followed the addition of DAB, HD22, or their equimolar mixture
- thrombin inhibition at a concentration of 1 nM ([6]; 1 nM inhibitor): completely inhibits thrombin activity
- thrombin inhibition, result in words ([6]; fluorogenic substrate assay): significantly higher inhibitory effect of thrombin than DAB, HD22, or their equimolar mixture
- potency higher than DAB ([6]; ratio of IC50 against thrombin): 500 fold
- maximum inhibition of thrombin activity ([6]; thrombin 0.5 nM, fluorogenic substrate): > 99%
- koff for thrombin binding ([7]; dissociation in buffer with 200 nM HD22-7A-DAB): 0.0021 s⁻¹
- kon for thrombin binding ([7]; immobilized biotinylated inhibitor): 3.9e+07 M⁻¹ s⁻¹
- inhibition of thrombin-mediated FVIII cleavage, result in words [8]: no proteolysis was observed for over one hour
- TT clotting time ([9]; 31 nM): > 999 s
- effect on TT at inhibitor concentration lower than the added thrombin ([9]; below 13.4 nM): limited effect on TT
- TT clotting time (measurable range of analyzer) ([9]; concentration exceeds 16 nM): > 999 s
- effect on TT, result in words ([9]; normal human plasma): rivals UFH

Substance: Tog25t: thrombin exosite II-targeting RNA aptamer, SEQ ID NO: 12 (GGGAACAAAGCUGAAGUACUUACCC; [invdT] at 3' end, other sugars and backbone not given here; further chemistry not fully specified)
- effect on aPTT clotting time [10]: modest extension in aPTT clotting time
